Measured values reported in the supplement of paper PMC7017272.
± gives the standard deviation of the averaged measurements.

Tests used:
Settings in all cases: treatment time: 3 days
UT-SCC-24A = experiment: drug sensitivity score (DSS); higher = more sensitive
Procedure: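 HNSCC cell lines (500 cells/well, 384-well) were cultured on plastic, on top of (2D) or embedded (3D) in Matrigel or human leiomyoma matrix Myogel (500 ug/mL; Myogel 3D mixed with rat collagen I). Cells were treated for 3 days with 5 ten-fold concentrations of each drug, and viability was read by CellTiter-Glo. Suffixes _1/_2/_3 on drug names are replicates.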

UT-SCC-81 = experiment: drug sensitivity score (DSS); higher = more sensitive; extreme values may be limits of the assay
Method in brief: (§1)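 Using 384-well plates, 500 cells/well of HPV-negative HNSCC cell lines were grown on plastic, on 500 µg/mL Matrigel or Myogel coatings, or embedded in Matrigel or Myogel with rat collagen I. They were treated with compounds at five 10-fold concentrations for 3 days, and luminescence from CellTiter-Glo 2.0 was normalised to vehicle (0.1% DMSO) and cell-killing control wells. IC50, maximal inhibition and drug sensitivity score were derived from percent-inhibition dose–response curves in the FIMM pipeline.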

UT-SCC-24B = experiment: as above
Method in brief: as §1

UT-SCC-106A = experiment: as above
Method in brief: as §1

UT-SCC-28 = experiment: as above
Method in brief: as §1

UT-SCC-42B = experiment: as above
Method in brief: as §1

UT-SCC-8 = experiment: as above
Method in brief: as §1

UT-SCC-14 = experiment: as above
Method in brief: as §1

UT-SCC-40 = experiment: as above
Method in brief: as §1

UT-SCC-44 = experiment: as above
Method in brief: as §1

UT-SCC-73 = experiment: as above
Method in brief: as §1

UT-SCC-42A = experiment: as above
Method in brief: as §1

[1] = culture condition: embedded in Matrigel
[2] = culture condition: on top of Matrigel
[3] = culture condition: on top of Myogel
[4] = culture condition: plastic 2D (no matrix)
[5] = culture condition: embedded in Myogel + collagen I

Question: How did the drug sensitivity score (UT-SCC-24A; [1]) turn out when `COc1cc2ncnc(Nc3ccc(F)c(Cl)c3)c2cc1OCCCN1CCOCC1` [Gefitinib] was run?
Answer: The drug sensitivity score was 21.1 ± 1.1 DSS.

Question: And the drug sensitivity score (UT-SCC-24A; [2])?
Answer: Its drug sensitivity score is 17 ± 2.1 DSS.

Question: And the drug sensitivity score (UT-SCC-24A; [3])?
Answer: Its drug sensitivity score is 3.27 ± 2.5 DSS.

Question: And the drug sensitivity score (UT-SCC-24A; [4])?
Answer: The drug sensitivity score was 16.4 ± 3.7 DSS.

Question: And the drug sensitivity score (UT-SCC-81; [1])?
Answer: The drug sensitivity score was 23.2 ± 0.32 DSS.

Question: And the drug sensitivity score (UT-SCC-81; [5])?
Answer: Its drug sensitivity score is 1.57 ± 2.7 DSS.

Question: What about the drug sensitivity score (UT-SCC-81; [2]) of the same molecule?
Answer: The drug sensitivity score was 10.8 ± 5.8 DSS.

Question: And the drug sensitivity score (UT-SCC-81; [3])?
Answer: The drug sensitivity score was 1 ± 1.1 DSS.

Question: What about the drug sensitivity score (UT-SCC-81; [4]) of the same molecule?
Answer: Its drug sensitivity score is 3.83 ± 5.2 DSS.

Question: What about the drug sensitivity score (UT-SCC-24B; [1]) of the same molecule?
Answer: Its drug sensitivity score is 12.5 ± 1.3 DSS.

Question: What about the drug sensitivity score (UT-SCC-24B; [5]) of the same molecule?
Answer: Its drug sensitivity score is 10.1 ± 3.4 DSS.

Question: And the drug sensitivity score (UT-SCC-24B; [2])?
Answer: The drug sensitivity score was 12.4 ± 1 DSS.

Question: What about the drug sensitivity score (UT-SCC-24B; [3]) of the same molecule?
Answer: Its drug sensitivity score is 5.73 ± 1.2 DSS.

Question: And the drug sensitivity score (UT-SCC-24B; [4])?
Answer: Its drug sensitivity score is 17.5 ± 0.64 DSS.

Question: And the drug sensitivity score (UT-SCC-106A; [1])?
Answer: Its drug sensitivity score is 4.63 ± 3.7 DSS.

Question: What about the drug sensitivity score (UT-SCC-106A; [5]) of the same molecule?
Answer: The drug sensitivity score was 0.4 ± 0.69 DSS.

Question: And the drug sensitivity score (UT-SCC-106A; [2])?
Answer: The drug sensitivity score was 8.13 ± 3.1 DSS.

Question: What about the drug sensitivity score (UT-SCC-106A; [3]) of the same molecule?
Answer: The drug sensitivity score was 0.1 ± 0.17 DSS.

Question: And the drug sensitivity score (UT-SCC-106A; [4])?
Answer: The drug sensitivity score was 7.53 ± 1 DSS.

Question: What about the drug sensitivity score (UT-SCC-28; [1]) of the same molecule?
Answer: The drug sensitivity score was 0.767 ± 1.3 DSS.

Question: What about the drug sensitivity score (UT-SCC-28; [5]) of the same molecule?
Answer: Its drug sensitivity score is 0 DSS.

Question: And the drug sensitivity score (UT-SCC-28; [2])?
Answer: The drug sensitivity score was 0.433 ± 0.75 DSS.

Question: And the drug sensitivity score (UT-SCC-28; [4])?
Answer: The drug sensitivity score was 0 DSS.

Question: What about the drug sensitivity score (UT-SCC-42B; [1]) of the same molecule?
Answer: The drug sensitivity score was 12.3 ± 6.1 DSS.

Question: And the drug sensitivity score (UT-SCC-42B; [2])?
Answer: The drug sensitivity score was 2.67 ± 4.6 DSS.

Question: What about the drug sensitivity score (UT-SCC-42B; [3]) of the same molecule?
Answer: Its drug sensitivity score is 0 DSS.

Question: What about the drug sensitivity score (UT-SCC-42B; [4]) of the same molecule?
Answer: The drug sensitivity score was 1.07 ± 1.7 DSS.

Question: What about the drug sensitivity score (UT-SCC-8; [1]) of the same molecule?
Answer: The drug sensitivity score was 14 ± 4.7 DSS.

Question: What about the drug sensitivity score (UT-SCC-8; [5]) of the same molecule?
Answer: Its drug sensitivity score is 0 DSS.

Question: What about the drug sensitivity score (UT-SCC-8; [2]) of the same molecule?
Answer: The drug sensitivity score was 7.87 ± 2.8 DSS.

Question: What about the drug sensitivity score (UT-SCC-8; [3]) of the same molecule?
Answer: Its drug sensitivity score is 2.4 ± 3.8 DSS.

Question: And the drug sensitivity score (UT-SCC-8; [4])?
Answer: The drug sensitivity score was 5.97 ± 4.5 DSS.

Question: What about the drug sensitivity score (UT-SCC-14; [5]) of the same molecule?
Answer: Its drug sensitivity score is 1.63 ± 2.7 DSS.

Question: And the drug sensitivity score (UT-SCC-14; [2])?
Answer: The drug sensitivity score was 3.87 ± 2.3 DSS.

Question: And the drug sensitivity score (UT-SCC-14; [3])?
Answer: The drug sensitivity score was 3.33 ± 3 DSS.

Question: And the drug sensitivity score (UT-SCC-14; [4])?
Answer: Its drug sensitivity score is 2.6 ± 4.5 DSS.

Question: And the drug sensitivity score (UT-SCC-40; [1])?
Answer: Its drug sensitivity score is 6.87 ± 1.9 DSS.

Question: And the drug sensitivity score (UT-SCC-40; [5])?
Answer: Its drug sensitivity score is 2.33 ± 2.6 DSS.

Question: What about the drug sensitivity score (UT-SCC-40; [2]) of the same molecule?
Answer: The drug sensitivity score was 3.7 ± 0.7 DSS.

Question: And the drug sensitivity score (UT-SCC-40; [3])?
Answer: The drug sensitivity score was 0.433 ± 0.51 DSS.

Question: And the drug sensitivity score (UT-SCC-40; [4])?
Answer: Its drug sensitivity score is 0.267 ± 0.25 DSS.

Question: What about the drug sensitivity score (UT-SCC-44; [1]) of the same molecule?
Answer: The drug sensitivity score was 0 DSS.

Question: What about the drug sensitivity score (UT-SCC-44; [5]) of the same molecule?
Answer: The drug sensitivity score was 0.567 ± 0.98 DSS.

Question: And the drug sensitivity score (UT-SCC-44; [2])?
Answer: Its drug sensitivity score is 0.5 ± 0.7 DSS.

Question: And the drug sensitivity score (UT-SCC-44; [3])?
Answer: Its drug sensitivity score is 1.03 ± 1.5 DSS.

Question: And the drug sensitivity score (UT-SCC-44; [4])?
Answer: The drug sensitivity score was 0.167 ± 0.29 DSS.

Question: What about the drug sensitivity score (UT-SCC-73; [1]) of the same molecule?
Answer: Its drug sensitivity score is 0.0667 ± 0.12 DSS.

Question: What about the drug sensitivity score (UT-SCC-73; [5]) of the same molecule?
Answer: Its drug sensitivity score is 1.73 ± 3 DSS.

Question: What about the drug sensitivity score (UT-SCC-73; [2]) of the same molecule?
Answer: The drug sensitivity score was 1.23 ± 2.1 DSS.

Question: And the drug sensitivity score (UT-SCC-73; [3])?
Answer: Its drug sensitivity score is 0.133 ± 0.15 DSS.

Question: What about the drug sensitivity score (UT-SCC-73; [4]) of the same molecule?
Answer: The drug sensitivity score was 0.2 ± 0.27 DSS.

Question: What about the drug sensitivity score (UT-SCC-42A; [5]) of the same molecule?
Answer: Its drug sensitivity score is 0 DSS.

Question: What about the drug sensitivity score (UT-SCC-42A; [2]) of the same molecule?
Answer: Its drug sensitivity score is 5 ± 4 DSS.

Question: What about the drug sensitivity score (UT-SCC-42A; [3]) of the same molecule?
Answer: Its drug sensitivity score is 1.43 ± 1.6 DSS.

Question: And the drug sensitivity score (UT-SCC-42A; [4])?
Answer: The drug sensitivity score was 2 ± 1.4 DSS.
